The source of these data is patent publication US20220242846A1, “ISOINDOLINONE COMPOUNDS” (Monte Rosa Therapeutics AG, priority 2019, published 2022).

Experiment [1] deals with T1, Full length wild-type cereblon CRBN (Homo sapiens, UniProt Q96SW2).
T1 construct: Full length wild-type cereblon CRBN (80.0 nM, 10 μL) was incubated in assay buffer
The experiment can be described thus: Fluorescence polarization (FP) assay indicating cereblon binding. Particulars: CRBN 80.0 nM, fluorescent probe 5 nM, FP measured after 12 hours; read-out: rFP IC50. The text has this:
Protocol for Fluorescent Polarization Assay
Compound activity was monitored in a fluorescence polarization (FP) homogeneous assay using 1-[5-({2-[2-(2-{[2-(2,6-dioxopiperidin-3-yl)-1,3-dioxo-2,3-dihydro-1H-isoindol-4-yl]oxy}acetamido)ethoxy]ethyl}carbamoyl)pentyl]-3,3-dimethyl-2-[(1E,3E)-5-[(2E)-1,3,3-trimethyl-5-sulfo-2,3-dihydro-1H-indol-2-ylidene]penta-1,3-dien-1-yl]-3H-indol-1-ium-5-sulfonate as a fluorescent probe. Unless otherwise stated, all reagents were purchased from Sigma Aldrich. Enzymatic reactions were conducted in Perkin-Elmer Black 384 well ProxiPlate Plus (catalogue no. 6008269) in 10 μL total volume. Full length wild-type cereblon CRBN (80.0 nM, 10 μL) was incubated in assay buffer containing 20 mM HEPES (pH 8.0), […], 0.5 mM TCEP and 0.05% Tween 20 in the presence or absence of compound (300 nL). Inhibitors were stored as 10 mM DMSO stocks in an inert environment (low humidity, dark, low oxygen, room temperature) using the Storage Pod System. Compounds and DMSO were dispensed using the Echo E5XX (Labcyte Inc. USA) to give concentrations from 300 to 0.937 or 3000 to 9.3 nM in a 12 data point curve. […] Following incubation at room temperature for […], the assay was initiated by dispensing the probe to a final concentration of 5 nM (2.5 nL of a 20 μM stock) using the Echo E5XX. FP was measured after a period of 12 hours using a Pherastar plate reader (BMG Labtech, Germany) exciting at 590 nm and measuring the amount of parallel and perpendicular light at 675 nm. The FP signal was subsequently normalized to the no-compound control (i.e., DMSO). Analysis and IC50 values were derived using Dotmatics (Dotmatics UK) software.

A further experiment has as its target GSPT1 (Homo sapiens, UniProt P15170+Q96SW2). The experiment can be described thus: Immunofluorescence assay for GSPT1 degradation in CAL-51 cells. Set-up: CAL-51 cells were purchased from DSMZ (cat. Number ACC302); endogenous in cells; host or cells: CAL-51 (DSMZ ACC302). It counts as cell-based. As to conditions: compound treatment 6 hours. As to the method:
CAL-51 cells were purchased from DSMZ (cat. Number ACC302), sub-cultured in 90% Dulbecco's MEM (4.5 g/L glucose, Gibco 11965) +10% heat inactivated FBS (BioConcept, 2-01F136I) and incubated at 37° C., 5% CO2. For the assay, imaging microtiterplate Cell Carrier 96 Ultra (Perkin Elmer 6055302) were pre-coated with Fibronectin (Sigma F085, 300 at 0.2 μg/ml) in PBS (1000, Gibco 14190) for 45 min at room temperature, rinsed with PBS and CAL-51 cells (30K cells/well) were plated and let to adhere overnight. Cells were treated with compounds typically using a serial dilution ranging from 30 μM to 0.1 nM for 6 hours. Compounds were stored at 10 mM DMSO stocks. Vehicle (DMSO), positive (CC-885, 10 μM) and rescue controls (positive control plus 0.2 μM bortezomib) were also included at this stage. Cells were subsequently rinsed with PBS and fixed in 10% Formalin solution (50 μl, Sigma HT5011)) for 20 mins at room temperature. Following three consecutive PBS washes (100 μl), cells were permeabilized in 0.1% Triton X-100 in PBS (Sigma 93443, 50 μl) for 15 mins at room temperature. Following three further PBS washes, 50 μl blocking buffer (1% BSA, Sigma A4503, in PBS) was added for 45 min for signal-to-noise reduction. Primary antibody (human GSPT1, Sigma HPA052488) was diluted in blocking buffer (dil. 1/300, 35 μl/well) and incubated with the cells overnight at 4° C. After three PBS washes, Alexa-fluor 488 coupled secondary antibodies (Invitrogen, A32731, dil. 1/1000), Alexa-fluor 647-Phalloïdin (Invitrogen, A22287, dil. 1/200) and DAPI (Thermo, #62248, dil.1/1000) were diluted in blocking buffer and incubated with the samples for 2 hours at room temperature. After three final PBS washes, samples were conserved in 1000 PBS in the dark, until measurement. Image acquisition was performed on the Operetta High-Content Imager (Perkin-Elmer). Fluorescence intensity of Alexa-Fluor 488 (GSPT1), Alexa-Fluor 647 (Actin) and DAPI (Nucleus) were measured. For the determination of GSPT1 DC50 values, a custom algorithm implemented in the PerkinElmer image analysis software Harmony-Acapella® was developed. After user-defined setting of adjustment parameters, the analysis was run identically without human intervention for all image fields. DAPI staining of the nuclei was used to determine the location of cells using standard nuclei detection modules. Segmentation artifacts were removed by threshold-based filters for area, roundness and intensity. The outline of the cells was determined analogously from the sum of the normalized, smoothed DAPI and Actin channel, starting from each nucleus. The Alexa-Fluor 488 (GSPT1) signal intensity in each cell was finally measured, in order to obtain a Mean intensity per cell. GSPT1 degradation (DC50) was calculated after normalization to controls and data import in CDD vault Database, using non-linear regression. Activity for GSPT1 Degradation Table 3 assigns each compound a code indicating the ability for GSPT1 degradation: A, B or C. According to the code, A represents a DC50 value of ≤100 nM, B represents a DC50 value >100 nM and ≤300 nM and C represents a DC50 value of >300 nM.

Setting [2] is: read-out: Code: activity for GSPT1 degradation (DC50).
The mark [3] stands for this setting: GSPT1 degradation, read-out: DC50.

Read-outs that look alike come from different tables or passages of the source.

T1 sequence (Q96SW2 whole entry): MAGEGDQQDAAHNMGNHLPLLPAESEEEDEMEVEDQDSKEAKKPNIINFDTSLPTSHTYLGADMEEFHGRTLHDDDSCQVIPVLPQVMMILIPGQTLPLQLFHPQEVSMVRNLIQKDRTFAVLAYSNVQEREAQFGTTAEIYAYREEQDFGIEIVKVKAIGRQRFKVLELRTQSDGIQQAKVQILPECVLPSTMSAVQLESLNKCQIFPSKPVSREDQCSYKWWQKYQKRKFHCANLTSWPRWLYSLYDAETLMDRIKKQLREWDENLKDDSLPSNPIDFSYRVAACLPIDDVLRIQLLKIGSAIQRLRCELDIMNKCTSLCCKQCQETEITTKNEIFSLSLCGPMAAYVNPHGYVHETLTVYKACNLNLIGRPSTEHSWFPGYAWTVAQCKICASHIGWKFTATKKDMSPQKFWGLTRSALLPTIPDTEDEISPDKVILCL
Chain of GSPT1 (P15170 whole entry): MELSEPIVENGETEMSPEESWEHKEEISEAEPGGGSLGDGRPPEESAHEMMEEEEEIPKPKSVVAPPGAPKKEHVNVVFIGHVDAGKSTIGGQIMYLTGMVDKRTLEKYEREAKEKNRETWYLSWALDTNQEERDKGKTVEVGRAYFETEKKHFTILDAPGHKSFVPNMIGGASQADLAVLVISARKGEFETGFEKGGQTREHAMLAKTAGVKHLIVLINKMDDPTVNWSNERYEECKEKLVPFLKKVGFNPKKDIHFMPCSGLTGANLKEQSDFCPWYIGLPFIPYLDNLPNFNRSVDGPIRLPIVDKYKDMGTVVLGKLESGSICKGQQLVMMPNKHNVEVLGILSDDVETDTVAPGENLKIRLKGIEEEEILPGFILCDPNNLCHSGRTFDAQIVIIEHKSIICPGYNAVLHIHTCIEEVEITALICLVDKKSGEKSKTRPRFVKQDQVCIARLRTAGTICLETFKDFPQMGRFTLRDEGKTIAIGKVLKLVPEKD
Chain of GSPT1 (Q96SW2 whole entry): as the sequence (Q96SW2 whole entry) above
Chain of GSPT1 (Q16531 2-1140 partner limits assumed): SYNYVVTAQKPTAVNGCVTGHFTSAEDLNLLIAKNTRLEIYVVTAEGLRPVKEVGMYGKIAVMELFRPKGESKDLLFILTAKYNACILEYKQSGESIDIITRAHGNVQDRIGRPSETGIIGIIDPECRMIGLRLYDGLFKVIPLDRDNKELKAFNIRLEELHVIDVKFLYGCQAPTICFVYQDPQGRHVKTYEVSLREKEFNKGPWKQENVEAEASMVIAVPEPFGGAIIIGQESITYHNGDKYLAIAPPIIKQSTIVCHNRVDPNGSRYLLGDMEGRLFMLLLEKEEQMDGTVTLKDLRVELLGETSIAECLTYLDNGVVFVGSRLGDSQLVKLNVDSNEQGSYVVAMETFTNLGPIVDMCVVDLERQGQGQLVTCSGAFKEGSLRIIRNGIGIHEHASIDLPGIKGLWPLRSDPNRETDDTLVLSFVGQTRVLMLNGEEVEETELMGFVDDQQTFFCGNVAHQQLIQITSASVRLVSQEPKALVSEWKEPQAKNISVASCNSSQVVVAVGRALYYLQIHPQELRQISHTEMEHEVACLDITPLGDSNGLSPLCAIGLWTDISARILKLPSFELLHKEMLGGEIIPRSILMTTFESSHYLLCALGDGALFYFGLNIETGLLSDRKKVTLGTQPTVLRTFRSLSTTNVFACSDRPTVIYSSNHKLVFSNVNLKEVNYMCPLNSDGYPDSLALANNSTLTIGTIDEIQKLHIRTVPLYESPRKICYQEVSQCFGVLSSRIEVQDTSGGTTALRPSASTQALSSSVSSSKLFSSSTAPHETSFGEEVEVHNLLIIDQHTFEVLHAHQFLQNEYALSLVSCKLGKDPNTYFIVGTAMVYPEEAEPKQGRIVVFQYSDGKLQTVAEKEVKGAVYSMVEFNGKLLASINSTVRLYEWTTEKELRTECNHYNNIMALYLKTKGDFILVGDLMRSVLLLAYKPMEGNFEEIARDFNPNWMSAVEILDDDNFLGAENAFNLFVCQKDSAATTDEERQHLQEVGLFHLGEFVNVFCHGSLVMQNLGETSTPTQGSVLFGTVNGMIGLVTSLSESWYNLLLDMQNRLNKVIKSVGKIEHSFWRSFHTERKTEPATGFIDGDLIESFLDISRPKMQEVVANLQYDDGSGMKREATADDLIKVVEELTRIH

On to `Cc1c(Cl)cc(NC(=O)NCc2ccc3c(c2)C(=O)N(C2CCC(=O)NC2=O)C3)cc1OC(F)(F)F` (stereo not drawn) [Compound 143], for which the IC50 in experiment [1] worked out at 3590 nM. Further, the DC50 at GSPT1 (setting [2]) was 100 to 300 nM.
As to `Cc1c(Cl)cc(NC(=O)NCc2ccc3c(c2)C(=O)N(C2CCC(=O)NC2=O)C3)cc1N1CCOCC1` (stereo not drawn) [Compound 122], the IC50 in experiment [1] stood at 657 nM. Further, the DC50 on GSPT1 (setting [2]) was at most 100 nM.
The matching figures for `O=C1CCC(N2Cc3ccc(CNC(=O)Nc4cccc(Oc5ccccn5)c4)cc3C2=O)C(=O)N1` (stereo not drawn) [Compound 121]: 243 nM and 100 to 300 nM.
The matching figures for `Cc1ccc(NC(=O)NCc2ccc3c(c2)C(=O)N(C2CCC(=O)NC2=O)C3)c(C)c1Cl` (stereo not drawn) [Compound 93]: 248 nM and over 300 nM.
On the same counts, the results for `Cc1cc(NC(=O)NCc2ccc3c(c2)C(=O)N(C2CCC(=O)NC2=O)C3)no1` (stereo not drawn) [Compound 97] are 301 nM and over 300 nM.
`O=C1CCC(N2Cc3ccc(CNC(=O)Nc4cccc(OC(=O)CN5CCOCC5)c4)cc3C2=O)C(=O)N1` (stereo not drawn) [Compound 110]: in experiment [1], the IC50 turned out to be 302 nM. For the same compound, the DC50 at GSPT1 (setting [2]) is over 300 nM.
Consider `CC(C)(C)c1ccc(NC(=O)NCc2ccc3c(c2)C(=O)N(C2CCC(=O)NC2=O)C3)cn1` (stereo not drawn) [Compound 163], for which the IC50 in experiment [1] was 1470 nM. Besides, the DC50 on GSPT1 (setting [2]) is at most 100 nM.
The matching figures for `CC(C)(O)c1cccc(NC(=O)NCc2ccc3c(c2)C(=O)N(C2CCC(=O)NC2=O)C3)c1` (stereo not drawn) [Compound 135]: 477 nM and over 300 nM.
On the same counts, the results for `O=C1CCC(N2Cc3ccc(CNC(=O)Nc4ccc5c(c4)OCO5)cc3C2=O)C(=O)N1` (stereo not drawn) [Compound 153] are 1840 nM and over 300 nM.
The matching figures for `O=C1CCC(N2Cc3ccc(CNC(=O)Nc4cc[nH]n4)cc3C2=O)C(=O)N1` (stereo not drawn) [Compound 102]: 389 nM and over 300 nM.
Regarding `CN1CCC(Oc2cccc(NC(=O)NCc3ccc4c(c3)C(=O)N(C3CCC(=O)NC3=O)C4)c2)CC1` (stereo not drawn) [Compound 130], the IC50 in experiment [1] stood at 358 nM. The 50% degradation concentration (DC50) at GSPT1 (setting [2]) was over 300 nM.
On the same counts, the results for `O=C1CCC(N2Cc3ccc(CNC(=O)Nc4cscn4)cc3C2=O)C(=O)N1` (stereo not drawn) [Compound 99] are 367 nM and over 300 nM.
The matching figures for `O=C1CCC(N2Cc3ccc(CNC(=O)Nc4cccc(OC(F)(F)F)c4)cc3C2=O)C(=O)N1` (stereo not drawn) [Compound 90]: 471 nM and at most 100 nM.
Consider `Cc1ccc(NC(=O)NCc2ccc3c(c2)C(=O)N(C2CCC(=O)NC2=O)C3)cc1CN1CCOCC1` (stereo not drawn) [Compound 101, 1-((2-(2,6-dioxopiperidin-3-yl)-3-oxoisoindolin-5-yl)methyl)-3-(4-methyl-3-(morpholinomethyl)phenyl)urea], for which, in experiment [1], the IC50 stood at 325 nM. For the same compound, the DC50 on GSPT1 (setting [3]) is 224 nM; at GSPT1 (setting [2]) it was 100 to 300 nM.
Regarding `Cc1c(Cl)cc(NC(=O)NCc2ccc3c(c2)C(=O)N(C2CCC(=O)NC2=O)C3)cc1CN1CCC(N2CCOCC2)CC1` (stereo not drawn) [Compound 126], the IC50 in experiment [1] was found to be 193 nM. Further, the half-maximal degradation concentration (DC50) on GSPT1 (setting [2]) was over 300 nM.
For the compound `Cc1ccc(NC(=O)NCc2ccc3c(c2)C(=O)N(C2CCC(=O)NC2=O)C3)cc1OC(F)(F)F` (stereo not drawn) [Compound 144], the IC50 in experiment [1] is 544 nM. For the same compound, the DC50 at GSPT1 (setting [2]) is at most 100 nM.
On the same counts, the results for `COc1c(NC(=O)NCc2ccc3c(c2)C(=O)N(C2CCC(=O)NC2=O)C3)ccc(C)c1Cl` (stereo not drawn) [Compound 86] are 203 nM and over 300 nM.
The matching figures for `O=C1CCC(N2Cc3ccc(CNC(=O)Nc4cc(Cl)cc(CN5CCOCC5)c4)cc3C2=O)C(=O)N1` (stereo not drawn) [Compound 119]: 408 nM and at most 100 nM.
As to `CC(C)(O)c1ccc(NC(=O)NCc2ccc3c(c2)C(=O)N(C2CCC(=O)NC2=O)C3)cc1` (stereo not drawn) [Compound 131], the IC50 in experiment [1] came to 334 nM. In addition, on GSPT1 (setting [2]), the DC50 was over 300 nM.
The matching figures for `Cc1nc(NC(=O)NCc2ccc3c(c2)C(=O)N(C2CCC(=O)NC2=O)C3)sc1C` (stereo not drawn) [Compound 150]: 304 nM and over 300 nM.
The matching figures for `CN(C)CC(=O)Oc1cccc(NC(=O)NCc2ccc3c(c2)C(=O)N(C2CCC(=O)NC2=O)C3)c1` (stereo not drawn) [Compound 136]: 425 nM and over 300 nM.
On the same counts, the results for `O=C1CCC(N2Cc3ccc(CNC(=O)Nc4cccc(-c5ncc[nH]5)c4)cc3C2=O)C(=O)N1` (stereo not drawn) [Compound 112] are 270 nM and over 300 nM.
`O=C1CCC(N2Cc3ccc(CNC(=O)Nc4ccsc4)cc3C2=O)C(=O)N1` (stereo not drawn) [Compound 84]: the IC50 in experiment [1] is 348 nM. Moreover, the DC50 on GSPT1 (setting [2]) was over 300 nM.
The matching figures for `Cc1ncc(NC(=O)NCc2ccc3c(c2)C(=O)N(C2CCC(=O)NC2=O)C3)cc1Cl` (stereo not drawn) [Compound 157]: 1520 nM and over 300 nM.
The matching figures for `CN(C)c1ccc(NC(=O)NCc2ccc3c(c2)C(=O)N(C2CCC(=O)NC2=O)C3)cc1` (stereo not drawn) [Compound 79]: 317 nM and over 300 nM.
Consider `Nc1ccc(NC(=O)NCc2ccc3c(c2)C(=O)N(C2CCC(=O)NC2=O)C3)cc1` (stereo not drawn) [Compound 81], for which, in experiment [1], the IC50 amounted to 919 nM. The DC50 on GSPT1 (setting [2]) was over 300 nM.
For the compound `Cc1c(Cl)cc(NC(=O)NCc2ccc3c(c2)C(=O)N(C2CCC(=O)NC2=O)C3)cc1CN1CC2(COC2)C1` (stereo not drawn) [Compound 109], the half-inhibitory concentration (IC50) in experiment [1] is 163 nM. The DC50 on GSPT1 (setting [3]) was 246 nM; at GSPT1 (setting [2]) it was 100 to 300 nM.
On to `O=C1CCC(N2Cc3ccc(CNC(=O)Nc4nccs4)cc3C2=O)C(=O)N1` (stereo not drawn) [Compound 92], for which, in experiment [1], the IC50 came out at 304 nM. Also, the DC50 at GSPT1 (setting [2]) is over 300 nM.
The matching figures for `Cc1ccc(NC(=O)NCc2ccc3c(c2)C(=O)N(C2CCC(=O)NC2=O)C3)nc1Cl` (stereo not drawn) [Compound 137]: 1140 nM and over 300 nM.
On the same counts, the results for `Cc1cc(C)c(NC(=O)NCc2ccc3c(c2)C(=O)N(C2CCC(=O)NC2=O)C3)c(C)c1Cl` (stereo not drawn) [Compound 107] are 247 nM and over 300 nM.
`Cc1c(Cl)cc(NC(=O)NCc2ccc3c(c2)C(=O)N(C2CCC(=O)NC2=O)C3)cc1CC(=O)O` (stereo not drawn) [Compound 120]: the IC50 in experiment [1] worked out at 453 nM. Moreover, the 50% degradation concentration (DC50) at GSPT1 (setting [2]) is over 300 nM.
In the case of `O=C1CCC(N2Cc3ccc(CNC(=O)Nc4cccc(OC5CCNCC5)c4)cc3C2=O)C(=O)N1` (stereo not drawn) [Compound 111], in experiment [1], the half-maximal inhibitory concentration (IC50) turned out to be 240 nM. Besides, the half-maximal degradation concentration (DC50) on GSPT1 (setting [2]) is over 300 nM.
